Data from patent US11691950B2, “Isoquinoline-steroid conjugates and uses thereof” (priority 2018, dated 2023).
Where a name gives a salt, the structure may show the parent alone.

Assays:
TNFα = TNFα secretion assay (LPS-treated RAW264.7 macrophages, ELISA); type: cell-based, murine; conditions: RAW264.7 cells, 4 hrs
Procedure: The TNFα assay quantifies secreted TNFα from RAW264.7 immortalized murine macrophages as an indicator of inflammation. The cells were concurrently treated with LPS (as an inducer of inflammation) and a titration of test molecules or control compounds for 4 hrs. After the incubation period, the media was harvested and assayed via an ELISA assay. ODs of experimental samples are fit to those of a standard curve to extrapolate the TNFα concentration. IC50 values were calculated by fitting a curve to experimental values with the controls as the top and bottom limits of the curve. Selected compounds provided herein were subjected to this assay.

TOX = TOX assay; type: cell-based; conditions: HCl salt
Procedure: Inhibition of various kinases was assayed.

myeloperoxidase activity = assay: Myeloperoxidase (MPO) activity after intravitreal LPS in mice; type: in vivo, C57B16 male mice; conditions: dosed at 0 and 6 hours, collected 24 hours
Procedure: Adult C57B16 male mice were injected with 2 ng of lipopolysaccharide (LPS) intravitreally. The mice were then dosed with vehicle, compounds or control treatments (0.07% w/w, 0.02% w/w or 0.007% w/w) at times 0 and 6 hours post-injection. Aqueous humor (AH) and vitreous humor (VH) was collected 24 hours after injection of LPS and assayed for MPO activity by ELISA. Data is a compilation of two separate experiments. Statistical analysis was carried out on GraphPad prism using a multiple comparisons 1-way ANOVA with uncorrected Dunn's test. Results are shown in FIG. 5 (aqueous humor) and FIG. 6 (vitreous humor). In FIG. 5 and FIG. 6, Dex refers to dexamethasone, Compound A refers to (S)-3-amino-2-(4-(hydroxymethyl)phenyl)-N-(isoquinolin-6-yl)propanamide, *refers to p<0.05, and **refers to p<0.005. MPO levels correspond to levels of neutrophil infiltration. In the context of non-infectious inflammatory events, neutrophils cause robust levels of damage to tissues.

SMILES | IC50 (TOX) | also measured
CC(C)(C)OC(=O)NC[C@@H](C(=O)Nc1ccc2cnccc2c1)c1ccc(COC(=O)CCC(=O)OCC(=O)[C@@]2(O)CC[C@H]3[C@@H]4CCC5=CC(=O)C=C[C@]5(C)[C@H]4[C@@H](O)C[C@@]32C)cc1 [Example 14] | – | IC50 (TNFα): 0.621 µM
C[C@@H]1C[C@H]2[C@@H]3CCC4=CC(=O)C=C[C@]4(C)[C@@]3(F)[C@@H](O)C[C@]2(C)[C@@]1(O)C(=O)COC(=O)CCC(=O)OCc1ccc([C@@H](CN)C(=O)Nc2ccc3cnccc3c2)cc1 [Example 25] | 100 µM | –
C[C@@H]1C[C@H]2[C@@H]3CCC4=CC(=O)C=C[C@]4(C)[C@@]3(F)[C@@H](O)C[C@]2(C)[C@@]1(O)C(=O)COC(=O)C1CC1C(=O)OCc1ccc([C@@H](CN)C(=O)Nc2ccc3cnccc3c2)cc1 (some centres unmarked) [Example 27] | 100 µM | –
CC1(C)O[C@@H]2C[C@H]3[C@@H]4CCC5=CC(=O)C=C[C@]5(C)[C@@]4(F)[C@@H](O)C[C@]3(C)[C@]2(C(=O)COC(=O)CCC(=O)OCc2ccc([C@@H](CN)C(=O)Nc3ccc4cnccc4c3)cc2)O1 [Example 33] | 55.2 µM | myeloperoxidase activity in aqueous humor (myeloperoxidase activity; FIG. 5): inhibiting effect; myeloperoxidase activity in vitreous humor (myeloperoxidase activity; FIG. 6): inhibiting effect
C[C@@H]1C[C@H]2[C@@H]3CCC4=CC(=O)C=C[C@]4(C)[C@@]3(F)[C@@H](O)C[C@]2(C)[C@@]1(O)C(=O)COC(=O)c1ccc(C(=O)OCc2ccc([C@@H](CN)C(=O)Nc3ccc4cnccc4c3)cc2)cc1 [Example 66, 4-((S)-3-amino-1-(isoquinolin-6-ylamino)-1-oxopropan-2-yl)benzyl (2-((8S,9R,10S,11S,13S,14S,16R,17R)-9-fluoro-11,17-dihydroxy-10,13,16-trimethyl-3-oxo-6,7,8,9,10,11,12,13,14,15,16,17-dodecahydro-3H-cyclopenta[a]phenanthren-17-yl)-2-oxoethyl) terephthalate dihydrochloride] | 100 µM | –
C[C@@H]1C[C@H]2[C@@H]3CCC4=CC(=O)C=C[C@]4(C)[C@@]3(F)[C@@H](O)C[C@]2(C)[C@@]1(O)C(=O)COC(=O)C[C@H](N)C(=O)OCc1ccc([C@@H](CN)C(=O)Nc2ccc3cnccc3c2)cc1 [Example 83, 1-(4-((S)-3-amino-1-(isoquinolin-6-ylamino)-1-oxopropan-2-yl)benzyl) 4-(2-((8S,9R,10S,11S,13S,14S,16R,17R)-9-fluoro-11,17-dihydroxy-10,13,16-trimethyl-3-oxo-6,7,8,9,10,11,12,13,14,15,16,17-dodecahydro-3H-cyclopenta[a]phenanthren-17-yl)-2-oxoethyl) L-aspartate trihydrochloride] | 100 µM | –
